The source of these data is PubChem BioAssay AID977613 (Broad Institute, 2014).

Structures are written as SMILES. Activity calls are given as the source filed them. How the calls were made is not given here.

The test system of this test is Broad 7084-01 inhibitor HTS, set 2. Briefly: single-concentration hits, screen 7084 set 2 (AID 977613).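 Further: host cells are infected with parasite promastigotes that become internalized.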
For the molecule `CN(C)CC(=O)N1CCCCN2[C@H](C1)[C@H](c1ccc(/C=C/c3ccccc3)cc1)[C@@H]2CO`, the active concentration is > 10 µM (inactive).

As for `CCCC#Cc1ccc([C@H]2[C@@H](CO)N3C(=O)CN(S(=O)(=O)c4ccccc4C)C[C@H]23)cc1`, the active concentration was > 10 µM (inactive). With `O=C(C[C@@H]1CC[C@H]2[C@@H](COC[C@H](O)CN2C(=O)Nc2ccc(C(F)(F)F)cc2)O1)NCC1CC1`, the active concentration was > 10 µM (inactive).

For `COc1ccc2c3c(n(C)c2c1)[C@H](CO)N(C)CC31CCN(S(=O)(=O)c2cccc(F)c2)CC1`, the active concentration is > 10 µM (inactive). With `COc1ccc2c3c([nH]c2c1)[C@H](CO)N(C)CC31CCN(S(=O)(=O)c2ccc(C)cc2)CC1`, the active concentration was > 10 µM (inactive). For the molecule `O=C(Cc1ccccn1)N1[C@H](CO)[C@H]2c3ccccc3NC[C@H]21`, the active concentration is > 10 µM (inactive). `CS(=O)(=O)N1C[C@H](O)COC[C@@H]2O[C@H](CC(=O)NCc3ccc(-c4ccccc4)cc3)CC[C@H]21`: the active concentration is > 10 µM (inactive).

Regarding `C/C=C/c1ccc([C@@H]2[C@H](CO)N3CCCCN(S(=O)(=O)c4ccc(OC)cc4)C[C@@H]23)cc1`, the active concentration is > 10 µM (inactive). As to `O=C1CNC[C@@H]2[C@@H](c3ccc(C#CC4CCCCC4)cc3)[C@H](CO)N12`, the active concentration is > 10 µM (inactive).

For the molecule `CC(C)NC(=O)N1[C@@H]2CN(C)c3ccccc3[C@@H]2[C@@H]1CO`, the active concentration was > 10 µM (inactive). In the case of `COc1ccc2c3c([nH]c2c1)[C@@H](CO)N(C(=O)NC(C)C)CC31CCN(C(=O)c2cnccn2)CC1`, the active concentration was > 10 µM (inactive).

As to `O=C(C[C@@H]1CC[C@H]2[C@@H](COC[C@H](O)CN2Cc2cccc(C(F)(F)F)c2)O1)NCc1ccccc1`, the active concentration is > 10 µM (inactive). For `CCNC(=O)Nc1ccc2c(c1)C(=O)N(C)[C@H]1CC[C@@H](CC(=O)N[C@H](C)c3ccccc3)O[C@H]1CO2`, the active concentration was > 10 µM (inactive). Next, `COc1ccc2c3c(n(C)c2c1)[C@@H](CO)N(C(=O)Cc1ccccc1)CC31CN(C)C1`: > 10 µM (inactive). Regarding `CN1C(=O)c2cc(NC(=O)Cc3cccs3)ccc2OC[C@H]2O[C@H](CC(=O)N[C@@H]3CCN(Cc4ccccc4)C3)CC[C@@H]21`, the active concentration is > 10 µM (inactive). For `N#C[C@@H]1[C@@H](c2ccccc2-c2cccc(F)c2)[C@@H](CO)N1C(=O)C1CC1`, the active concentration is > 10 µM (inactive). `N#C[C@@H]1[C@H](c2ccccc2C2=CCCC2)[C@@H](CO)N1C(=O)CN1CCOCC1`: the active concentration is > 10 µM (inactive). Regarding `CCCNC(=O)N1CC(=O)N2[C@H](C1)[C@H](c1ccc(C#CCC3CCCC3)cc1)[C@@H]2CO`, the active concentration is > 10 µM (inactive). Regarding `COc1ccc2c3c(n(C)c2c1)[C@@H](CO)NCC31CCN(Cc2cc(F)ccc2F)CC1`, the active concentration is > 10 µM (inactive). With `O=C(c1cccc(F)c1)N1C[C@@H]2[C@H](c3ccccc31)[C@@H](CO)N2C(=O)C1CCOCC1` the figure was > 10 µM (inactive); with `Cc1cccc(S(=O)(=O)N2C[C@@H](O)COC[C@H]3O[C@@H](CC(=O)Nc4ccccc4)CC[C@@H]32)c1`, > 10 µM (inactive); with `O=C(C[C@@H]1CC[C@H]2[C@@H](COC[C@H](O)CN2S(=O)(=O)c2cccc(F)c2)O1)Nc1ccc(-c2ccccc2)cc1`, > 10 µM (inactive). With `CCS(=O)(=O)N1CC(=O)N2[C@@H](CO)[C@@H](c3ccc(C#CC4CCCCC4)cc3)[C@@H]2C1` the figure was > 10 µM (inactive). On to `COc1ccc(CN2[C@@H]3CN(C(=O)Nc4ccc(F)cc4)c4ccccc4[C@@H]3[C@@H]2CO)cc1`, for which the active concentration was > 10 µM (inactive).

Take `CCCNC(=O)N1CC2(C1)[C@H](c1ccccc1)[C@@H](CO)N2Cc1cccc(Cl)c1`: the active concentration was > 10 µM (inactive).

Take `CN1C(=O)c2cc(NC(=O)Cc3cccs3)ccc2OC[C@@H]2O[C@@H](CC(=O)N[C@@H]3CCN(Cc4ccccc4)C3)CC[C@H]21`: the active concentration was > 10 µM (inactive). On to `CCCNC(=O)N1[C@@H](CO)[C@H](c2ccccc2)C12CN(C(=O)C1CCCCC1)C2`, for which the active concentration is > 10 µM (inactive). With `COc1ccccc1CN1CC[C@@H]2[C@@H](CO)Nc3ccc(C#Cc4ccccc4)cc3[C@@H]21` the figure was > 10 µM (inactive).

In the case of `CN1c2ccc(C#Cc3cccnc3)cc2[C@H]2[C@H](CCN2S(=O)(=O)c2ccccc2F)[C@@H]1CO`, the active concentration was > 10 µM (inactive). With `O=C(NC1CCCCC1)N1CC(=O)N2[C@H](C1)[C@H](c1ccc(-c3ccncc3)cc1)[C@@H]2CO` the figure was > 10 µM (inactive). For the molecule `COc1ccc(NC(=O)N2CC(=O)N3[C@@H](CO)[C@H](c4ccc(Br)cc4)[C@@H]3C2)cc1`, the active concentration is > 10 µM (inactive). As to `CCCNC(=O)N1CC(=O)N2[C@H](C1)[C@@H](c1ccc(-c3ccc(F)cc3)cc1)[C@@H]2CO`, the active concentration is > 10 µM (inactive).

With `Cc1ccccc1-c1ccc([C@@H]2[C@@H](CO)N3C(=O)CN(S(C)(=O)=O)C[C@@H]23)cc1`, the active concentration was > 10 µM (inactive). As to `COc1ccc2c3c([nH]c2c1)[C@@H](CO)N(S(=O)(=O)c1cn(C)cn1)CC31CCN(CC2CCCCC2)CC1`, the active concentration was > 10 µM (inactive).

For the molecule `CN1CCN(C(=O)C[C@H]2CC[C@H]3[C@@H](COC[C@@H](O)CN3C(=O)C3CC3)O2)CC1`, the active concentration is > 10 µM (inactive).

On to `COc1ccc(NC(=O)N2CCCCN3[C@H](C2)[C@H](c2ccc(-c4ccccc4F)cc2)[C@@H]3CO)cc1`, for which the active concentration was > 10 µM (inactive).

With `O=C(CN1CCOCC1)N1CC(=O)N2[C@H](CO)[C@@H](c3ccc(-c4cccc(F)c4)cc3)[C@@H]2C1`, the active concentration is > 10 µM (inactive). With `COc1ccc2c3c([nH]c2c1)[C@@H](CO)N(C(=O)Nc1ccc(F)cc1)CC31CN(Cc2cc(-c3ccccc3)on2)C1` the figure was > 10 µM (inactive). For the molecule `O=C(C[C@@H]1CC[C@@H]2[C@H](COC[C@H](O)CN2C(=O)c2ccccc2)O1)Nc1ccc(-c2ccccc2)cc1`, the active concentration was > 10 µM (inactive). As for `COc1ccc(-c2ccccc2[C@H]2[C@@H](CO)N(C(=O)NC(C)C)[C@H]2C#N)cc1`, the active concentration was > 10 µM (inactive).

Regarding `COc1ccc2c3c([nH]c2c1)[C@@H](CO)NCC31CN(Cc2cc(F)ccc2F)C1`, the active concentration is > 10 µM (inactive).

`O=C(C[C@@H]1CC[C@@H]2[C@H](COC[C@H](O)CN2Cc2ccccc2)O1)NCCc1ccccc1`: the active concentration is > 10 µM (inactive). Regarding `CCC(=O)N1CC2(C1)[C@@H](c1ccccc1)[C@@H](CO)N2C(=O)NC(C)C`, the active concentration was > 10 µM (inactive). On to `COc1ccccc1C(=O)Nc1ccc2c(c1)C(=O)N(C)[C@@H]1CC[C@@H](CC(=O)NCCc3ccncc3)O[C@H]1CO2`, for which the active concentration is > 10 µM (inactive).

`O=C(Nc1ccccc1)N1CC(=O)N2[C@H](C1)[C@H](c1ccc(C#CC3CCCCC3)cc1)[C@@H]2CO`: the active concentration was > 10 µM (inactive). Turning to `CCCC#Cc1ccc([C@H]2[C@H]3CN(C(=O)c4cccnc4)CC(=O)N3[C@H]2CO)cc1`, the active concentration is > 10 µM (inactive). Take `O=C(c1ccccc1)N1CC(=O)N2[C@H](C1)[C@@H](c1ccc(-c3ccccc3)cc1)[C@@H]2CO`: the active concentration was > 10 µM (inactive). On to `O=S(=O)(c1ccc(F)cc1)N1CCCCN2[C@H](C1)[C@@H](c1ccc(-c3cncnc3)cc1)[C@@H]2CO`, for which the active concentration was > 10 µM (inactive).

As to `COc1ccc(NC(=O)N2CC(=O)N3[C@H](C2)[C@@H](c2ccc(Br)cc2)[C@@H]3CO)cc1`, the active concentration is > 10 µM (inactive). Next, `CCNC(=O)C[C@H]1CC[C@@H]2[C@H](COC[C@@H](O)CN2C(=O)C2CC2)O1`: > 10 µM (inactive); `COCC(=O)N1[C@H](C#N)[C@H](c2ccccc2-c2ccccc2F)[C@H]1CO`: > 10 µM (inactive). With `N#C[C@@H]1[C@H](c2ccccc2-c2ccccc2)[C@@H](CO)N1C(=O)Cc1ccncc1`, the active concentration is > 10 µM (inactive).

As for `CN1C(=O)c2cc(NC(=O)C3CCOCC3)ccc2OC[C@H]2O[C@@H](CC(=O)NCCc3ccncc3)CC[C@H]21`, the active concentration was > 10 µM (inactive). Consider `O=C(C[C@H]1CC[C@@H]2[C@H](COC[C@@H](O)CN2C(=O)C2CC2)O1)NCc1ccncc1`, for which the active concentration was > 10 µM (inactive).

`CN1C(=O)c2cc(NC(=O)c3cccc(F)c3)ccc2OC[C@@H]2O[C@H](CC(=O)NCC3CCCCC3)CC[C@@H]21`: the active concentration is > 10 µM (inactive). For the molecule `O=C(C1CCCCC1)N1CC2(C1)[C@@H](c1ccccc1)[C@H](CO)N2C(=O)c1cccnc1`, the active concentration is > 10 µM (inactive). Regarding `COc1ccccc1C(=O)Nc1ccc2c(c1)C(=O)N(C)[C@@H]1CC[C@H](CC(=O)NCCc3ccncc3)O[C@@H]1CO2`, the active concentration is > 10 µM (inactive). As to `O=C(C[C@H]1CC[C@@H]2[C@H](COC[C@H](O)CN2C(=O)Cc2ccccc2)O1)NC1CCCC1`, the active concentration is > 10 µM (inactive).

Regarding `O=C(C[C@H]1CC[C@@H]2[C@H](COC[C@H](O)CN2Cc2cc(F)cc(F)c2)O1)NC1CCC1`, the active concentration is > 10 µM (inactive). With `COc1cccc(S(=O)(=O)N2CCCCN3[C@H](C2)[C@H](c2ccc(C#CCC(C)C)cc2)[C@@H]3CO)c1` the figure was > 10 µM (inactive). Turning to `O=C(c1ccccn1)N1C[C@H]2[C@@H](c3ccccc31)[C@@H](CO)N2C(=O)Nc1ccccc1F`, the active concentration was > 10 µM (inactive).

On to `O=C(C[C@H]1CC[C@H]2[C@@H](COC[C@@H](O)CN2C(=O)c2ccccc2)O1)Nc1ccc(-c2ccccc2)cc1`, for which the active concentration is > 10 µM (inactive). In the case of `O=C([C@@H]1[C@@H](CO)[C@@H]2Cn3c(cccc3=O)[C@H]1N2CC1CC1)N1CCc2ccccc2C1`, the active concentration was > 10 µM (inactive). On to `CN(C)CC(=O)N1C[C@@H]2[C@H](c3ccccc31)[C@H](CO)N2Cc1cc(F)ccc1F`, for which the active concentration is > 10 µM (inactive).
